Assay [1] concerns Adjuvansarthritis. As to the kind of experiment: Adjuvant arthritis test in the rat. The assay is classed as in vivo. Particulars: po, Ratten, peroral, read-out: hoch aktiv bei peroralen Dosen bis hinunter zu. From the text: Die Verbindungen der Erfindung zeigen wertvolle pharmakologische Eigenschaften, in erster Linie antiinflammatorische und antiarthritische Wirkungen. Diese können in in-vitro oder in-vivo Versuchen nachgewiesen werden. In den letzteren werden vorzugsweise Säugetiere, z.B. Ratten, Katzen, Meerschweinchen oder Hunde als Testobjekte verwendet. Die Verbindungen der Erfindung können ihnen enteral, vorzugsweise oral, parenteral, z.B. subkutan oder intravenös, oder topisch, z.B. in Form von Lösungen in Wasser oder Oel, oder in Form von Stärke enthaltenden Suspensionen, verabreicht werden. Die verwendete Dosis kann in einem Bereich von ungefähr zwischen 0,1 und 100 mg/kg/Tag, vorzugsweise ungefähr 1 und 50 mg/kg/Tag, in erster Linie ungefähr 2 und. 25 mg/kg/Tag, liegen. Die für die genannten Wirkungen gewählten Tests sind entweder klassische Versuchsmethoden, z.B.der Carrageenin-Pfotenödem- oder der Adjuvansarthritis-Test in der Ratte, der Synoviitis-Versuch am Hund oder der Test, in welchem das durch ultraviolettes Licht hervorgerufene Erythem ausgewertet wird, oder moderne Testmethoden. Solche sind die neutrale Protease Hemmung [beschrieben in Arthritis Rheum. 17, 47 (1974)] oder die Hemmung der Leukozyten Chemotaxis [N.Y.Acad. Sci., 256, 177 (1975)]. […]

Assay [2] relates to BCG-immunisierten Makrophagen. The class given is cell-based, Charles River-Ratten. The conditions noted are these: in vitro, result in words.

For the compound `Cn1cccc1C(=O)C(C#N)C(=O)Nc1ccccc1` (stereo not drawn) [1-Methyl-β-oxo-α-phenylcarbamoyl-2-pyrrol-propionitril], the minimal effective dose in assay [1] was no less than 2 mg/kg/day.
Turning to `COc1ccc2c(c1)c(CC(=O)O)c(C)n2C(=O)c1ccc(Cl)cc1` [Indomethacin], the “Einfluss auf die Makrophagen-Chemotaxis” value in assay [2] is “beeinflusst das Indomethacin die Makrophagen-Chemotaxis nicht”.

Values taken from patent EP0021207A1, “Alphacarbamoyl-pyrrolpropionitriles, process for their preparation and pharmaceutical preparations containing them” (priority 1979, dated 1981).
